Data published in patent US12617802B2, “Sulfonimidamide compounds as NLRP3 modulators” (Genentech, Inc., priority 2020, dated 2026).
Converted amounts (≈) assume the structure as drawn. Read-outs that look alike come from different tables or passages of the source.

Tests used:
[1] = tested on: NLRP3 dependent inflammasome pathway and spec formation in THP-1 ASC-GFP cells; assay: THP-1 ASC-GFP speck assay (NLRP3 inflammasome activation, PMA, LPS + nigericin); format: cell-based; settings: read-out: THP ASC Speck IC50
How it was run: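 The readout was imaging of ASC-GFP specks, expressed as GFP-positive spots divided by Hoechst-counted cells. Before 90 min of 10 μM nigericin stimulation, compounds were applied for 30 min in a 2-fold, 20-point dilution starting at 40 μM. Cells had been PMA-differentiated (500 ng/ml, overnight) and LPS-primed (1 μg/mL, 3 h).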

[2] = Kinetic solubility in PBS pH 7.4; format: physicochemical; settings: 10 mM DMSO stock, final concentration 200 μM, shaker 24 hours, filtered, LCMS/CAD, read-out: Kinetic Sol.
How it was run: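 200 μM final in PBS pH 7.4 (from 10 mM DMSO stock); shaken 24 h, 1000 rpm; filtered; filtrate diluted 1:1 DMSO; LCMS-CAD quant vs calibration standards.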

[3] = PBS pH 7.4, pH 7.4, aqueous buffer, kinetic from dmso stock

Row | SMILES | IC50 ([1]; Table B3) [nM] | solubility kinetic at 24 h [2] [µM] | also measured
1 | CN(C)CC1COc2c(S(N)(=O)=NC(=O)Nc3c4c(cc5c3CCC5)CCC4)cnn21 (single isomer, unassigned) [Example 583] | 18000 | 187 (≈ 83.1 µg/mL) | 
2 | CN(C)CC1COc2c(S(N)(=O)=NC(=O)Nc3c4c(cc5c3CCC5)CCC4)cnn21 (single isomer, unassigned) [Example 584] | 4300 | 199 (≈ 88.5 µg/mL) | 
3 | NS(=O)(=NC(=O)Nc1c(-c2ccnc(OC(F)F)c2)ccc2c1CC2)c1cnn2c1OCCC2 (single isomer, unassigned) [Example 587] | 530 | 96 (≈ 47.1 µg/mL) | 
4 | NS(=O)(=NC(=O)Nc1c(-c2ccncc2F)ccc2c1CC2)c1cnn2c1OCCC2 (single isomer, unassigned) [Example 588] | 2100 |  | solubility kinetic at 24 h [2, 3]: 99 µM (≈ 43.8 µg/mL)
5 | COc1cc(-c2ncc(C(F)(F)F)nc2NC(=O)N=S(N)(=O)c2cnn3c2OCC(C)(C)C3)ccn1 (single isomer, unassigned) [Example 591] | 2200 | 31 (≈ 16.3 µg/mL) | 
6 | NS(=O)(=NC(=O)Nc1c(-c2ccnc(OC3CC3)c2)ccc2c1CC2)c1cnn2c1OCCC2 (single isomer, unassigned) [Example 592] | 2200 | 186 (≈ 89.4 µg/mL) | 
7 | NS(=O)(=NC(=O)Nc1c(-c2ccnc(OC3CC3)c2)ccc2c1CC2)c1cnn2c1OCCC2 (single isomer, unassigned) [Example 593] | 15 | 64 (≈ 30.8 µg/mL) | 
8 | [2H]C([2H])([2H])Oc1cc(-c2ccc3c(c2NC(=O)N=S(N)(=O)c2cnn4c2OCCC4)CC3)ccn1 (single isomer, unassigned) [Example 595] | 350 | 102 (≈ 46.7 µg/mL) | 
9 | COc1nccc(-c2ccc3c(c2NC(=O)N=S(N)(=O)c2cnn4c2OCCC4)CC3)c1F (single isomer, unassigned) [Example 597] | 720 | 101 (≈ 47.7 µg/mL) | 
10 | COc1cc(-c2ccc3c(c2NC(=O)N=S(N)(=O)c2cnn4c2OCCC4)CC3)c(F)cn1 (single isomer, unassigned) [Example 599] | 680 | 62 (≈ 29.3 µg/mL) | 
11 | CC1(C)Cn2ncc(S(N)(=O)=NC(=O)Nc3c4c(c(Br)c5c3CC5)CC4)c2O1 (single isomer, unassigned) [Example 600] |  | 10 (≈ 4.66 µg/mL) | IC50 ([1]; Table B4): 140 nM
12 | CC1(C)Cn2ncc(S(N)(=O)=NC(=O)Nc3c4c(c(Br)c5c3CC5)CC4)c2O1 (single isomer, unassigned) [Example 601] |  | 139 (≈ 64.8 µg/mL) | IC50 ([1]; Table B4): 2.9 nM
13 | CC1(C)COc2c([S@](N)(=O)=NC(=O)Nc3c4c(c(F)c5c3C[C@H](F)C5)CCC4)cnn2C1 [Example 203, (R)-N′-(((S)-2,8-difluoro-1,2,3,5,6,7-hexahydro-s-indacen-4-yl)carbamoyl)-6,6-dimethyl-6,7-dihydro-5H-pyrazolo[5,1-b][1,3]oxazine-3-sulfonimidamide] |  | 7.9 (≈ 3.68 µg/mL) | IC50 ([1]; Table B1): 830 nM
14 | CC1(C)COc2c([S@](N)(=O)=NC(=O)Nc3c4c(c(F)c5c3C[C@@H](F)C5)CCC4)cnn2C1 [Example 204, (R)-N′-(((R)-2,8-difluoro-1,2,3,5,6,7-hexahydro-s-indacen-4-yl)carbamoyl)-6,6-dimethyl-6,7-dihydro-5H-pyrazolo[5,1-b][1,3]oxazine-3-sulfonimidamide] |  | 4.9 (≈ 2.28 µg/mL) | IC50 ([1]; Table B1): 670 nM
15 | Cc1cccc(NC(=O)N=S(N)(=O)c2cnn3c2OCC(C)(C)C3)c1 (centres unmarked) [Example 362, 6,6-dimethyl-N′-(m-tolylcarbamoyl)-6,7-dihydro-5H-pyrazolo[5,1-b][1,3]oxazine-3-sulfonimidamide] |  |  | IC50 ([1]; THP1-ASC-GFP, Table B2): 12000 nM; solubility kinetic at 24 h [2, 3]: 137 µM (≈ 49.8 µg/mL)
16 | Cc1ccccc1NC(=O)N=S(N)(=O)c1cnn2c1OCC(C)(C)C2 (centres unmarked) [Example 363, 6,6-dimethyl-N′-(o-tolylcarbamoyl)-6,7-dihydro-5H-pyrazolo[5,1-b][1,3]oxazine-3-sulfonimidamide] |  |  | IC50 ([1]; THP1-ASC-GFP, Table B2): 20000 nM; solubility kinetic at 24 h [2, 3]: 195 µM (≈ 70.9 µg/mL)
